“Also recorded” adds a separate entry of the source.

Consider one molecule from patent US20240181068A1, “SELECTIVE NEUTRAL PH INHIBITOR OF CATHEPSIN B” (The Regents of the University of California, priority 2021, published 2024).

What all share (assay type): biochemical
The target of one experiment is T1, cathepsin C (Homo sapiens, UniProt P53634).
T1 construct: purchased R&D Systems 1071-CY-010
The experiment can be described thus: Specificity of inhibitors: cathepsin C (Gly-Arg-AMC substrate). The procedure:
Specificity of inhibitors for other cysteine cathepsin proteases. The effects of Z-Arg-Lys-AOMK and Z-Glu-Lys-AOMK on cathepsin V, L, K, S, X, H and C activities were assessed. IC50 values were calculated at pH 4.6 and pH 7.2 conditions, consisting of 40 mM citrate phosphate, 1 mM EDTA, 100 mM NaCl, and 5 mM DTT. The inhibitor concentrations ranged from 16.38 μM to 256 nM with 2-fold serial dilutions. […] Cathepsin V (0.04 ng/μL), cathepsin L (0.03 ng/μL), cathepsin K (0.10 ng/μL), cathepsin S (0.20 ng/uL) were assayed with 40 μM Z-Phe-Arg-AMC. Cathepsin X (0.20 ng/uL), cathepsin C (0.51 ng/uL) and cathepsin H (0.1 ng/μL) were assayed with 40 μM of MCA-Arg-Pro-Pro-Gly-Phe-Ser-Ala-Phe-Lys(Dnp)OH (SEQ ID NO: 2), Gly-Arg-AMC, and Arg-AMC, respectively. Activation of pro-cathepsin H to cathepsin H was conducted by incubation of cathepsin H (4.4 ng/μL) with cathepsin L (1.1 ng/μL) at RT for 2 hrs in activation buffer (20 mM citrate phosphate pH 6.0, 100 mM NaCl, and 5 mM DTT). Cathepsin C (13.78 ng/μL) was activated by incubation with cathepsin L (3.4 ng/μL) at RT for one hr in activation buffer (20 mM citrate phosphate, pH 6.0, 100 mM NaCl, 5 mM DTT). […] For all assays containing peptide-AMC substrates the fluorescent microplate reader settings were the same as outlined above for cathepsin B. For the cathepsin X assay, the plate reader was set to excitation 320 nm, emission 400 nm, gain 105, top optics and read height 1 mm. To convert RFU/s to picomol/min, 10 μM to 0.005 μM (2-fold serial dilution) of MCA-Arg-Pro-Pro-Gly-Phe-Ser-Ala-Phe-Lys(Dnp)OH (SEQ ID NO: 2) was fully hydrolyzed with excess cathepsin X and a standard curve was generated using the total fluorescence values calculated at each concentration.

Experiment [1] has as its target T2, cathepsin B in SHSY5Y human neuroblastoma cell homogenate (Homo sapiens, UniProt P07858).
T2 construct: endogenous in cells; host or cells: SH-SY5Y human neuroblastoma cells
The experiment can be described thus: Cathepsin B activity in neuroblastoma cell homogenates in presence of inhibitors. The settings on record: inhibitor 1 μM, Z-Arg-Arg-AMC substrate, pH 5.5. Here is the method: Cathepsin B in human neuroblastoma cells treated with inhibitors. Neuroblastoma cells (human SHSY5Y) were grown in media consisting of 50% MEMalpha, 50% F12-K, 10% heat-inactivated FBS at 37° C. in an atmosphere of 95% air and 5% CO2. Firstly, cell homogenates were prepared by collection of cells in 0.32 M sucrose and freeze-thawing. Secondly, cells were incubated with Z-Arg-Lys-AOMK or CA-074Me for 6 hours at 37° C., and washed 3 times in phosphate-buffered saline and homogenates were prepared in 0.32 M sucrose with freeze-thawing. CA-074Me is a methyl ester form of the active CA-074 selective inhibitor of cathepsin B (70); CA-074Me penetrates the cell and is converted by intracellular esterases to CA-074.
Cathepsin B activity in the homogenates were monitored with Z-Arg-Arg-AMC substrate (60 μM) with buffer conditions of 40 mM citrate-phosphate, pH 5.5, 5 mM DTT, 1 mM EDTA, 100 mM NaCl, and 1.2% DMSO, followed by incubation at 37° C. for 30 minutes and reading of AMC fluorescence. CA-074-senstive activity was monitored to indicate cathepsin B activity, since CA-074 is a selective inhibitor of this enzyme (70). Protein content was measured in homogenates with the DC protein assay kit. Cathepsin B specific activity was calculated as nmol AMC/μg/min, and reported as the mean±SD (with analyses for statistical significance, p<0.05 by student's t-test).

A further experiment deals with T3, cathepsin B (Homo sapiens, UniProt P07858).
T3 construct: purchased R&D Systems 953-CY-010
The experiment can be described thus: Inhibition of peptide library cleavages characterized by MSP-MS. The conditions noted are these: 64 nM inhibitor. Here is the method:
Cathepsin B cleavage site analysis by multiplex substrate profiling by mass spectrometry (MSP-MS). Cathepsin B activity (activated) was titrated with E64c to calculate the concentration of active cathepsin B. For MSP-MS assays, cathepsin B (0.1 ng/μL, activated) was incubated with a peptide library of 228 14-mer peptides, each at 0.5 μM peptide, in buffer consisting of 50 mM citrate phosphate of pH 7.2 or pH 4.6, 1 mM EDTA, 100 mM NaCl and 4 mM DTT (total volume of 46 μL). After incubation for […] at 25° C., 20 μL aliquots were removed and combined with 80 μL of 8 M urea. An inactivated cathepsin B control consisted of cathepsin B in assay buffer combined with 8 M urea for 60 minutes at 25° C. for denaturation, followed by addition of the peptide library. After incubation, samples were acidified by addition of 40 μL of 2% FA, desalted using C18 LTS Tips (Rainin), evaporated to dryness in a vacuum centrifuge, and stored at −70° C. Samples were resuspended in 20 μL of 0.1% FA (solvent A) and 1 μL was used for LC-MS/MS analysis. All MSP-MS conditions were conducted in quadruplicate assays.
Inhibitor inhibition of peptide cleavages characterized by MSP-MS. […]

T1 sequence (P53634 25-134 limits assumed): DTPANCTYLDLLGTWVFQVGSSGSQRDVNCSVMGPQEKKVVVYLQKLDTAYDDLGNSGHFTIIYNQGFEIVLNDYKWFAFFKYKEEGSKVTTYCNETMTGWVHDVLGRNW
T1 sequence (P53634 231-394 limits assumed): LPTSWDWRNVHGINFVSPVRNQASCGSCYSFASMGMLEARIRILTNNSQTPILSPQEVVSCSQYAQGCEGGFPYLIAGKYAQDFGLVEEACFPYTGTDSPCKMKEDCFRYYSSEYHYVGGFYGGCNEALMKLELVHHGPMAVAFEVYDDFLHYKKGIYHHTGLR
T1 sequence (P53634 395-463 limits assumed): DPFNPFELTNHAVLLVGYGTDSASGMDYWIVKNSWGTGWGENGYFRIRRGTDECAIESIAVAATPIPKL

As a reminder, the IC50 is the concentration needed to halve the response being measured. Lower therefore signals greater potency in that assay. What is called inhibition is the percentage by which the read-out fell short of the control. Read a high inhibition as a response far below the control. `Cc1cccc(C)c1C(=O)OCC(=O)C(CCCCN)NC(=O)C(CCCNC(=N)N)NC(=O)OCc1ccccc1` (stereo not drawn) [Z-Arg-Lys-AOMK]: the IC50 against cathepsin C (cathepsin C, pH 4.6) is over 16000 nM; at cathepsin C (cathepsin C, pH 7.2), 850 nM. Also, on cathepsin C (cathepsin C, pH 4.6, 16,000 nM inhibitor), testing at 16 µM gave an inhibition of 6%. Moreover, at cathepsin C (pH 4.6, inhibitor at 16 μM), the “inhibition of cathepsin C” value is given as “minimal inhibition”. On cathepsin C (pH 7.2, from IC50), the “fold more potent for cathepsin B than cathepsin C” value was found to be 43 fold. Further, the “inhibition of proteolytic (cathepsin B) activity in cell lysate” value in experiment [1] is listed as “completely inhibited”. Besides, the “inhibition of cathepsin B cleavage of peptide library substrates” value on cathepsin B (pH 4.6) is recorded as “does not inhibit; also recorded: did not inhibit”; at cathepsin B (pH 7.2, 1 hr incubation), “inhibits; also recorded: completely inhibited”.
